Activity calls are given as the source filed them. No rule for the calls is given here.
Tested on: rodent carcinogenicity bioassays, tumor incidence
Assay: CCRIS carcinogenicity studies
How it was run: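 NCI-built, expert-reviewed records of carcinogenicity and related test outcomes (mutagenicity, tumor promotion/inhibition) compiled from published and report sources, historical span 1985-2011, not updated.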

CC1=CC(O)=NS(=O)(=O)O1
carcinogen call (Species: MOUSE, Strain/Sex: SWISS/FEMALE, Route: ORAL, Dose: 0, 3000, 10000, 30000 PPM IN DIET FOR 80 WK (STUDY DURATION: 80 WK), Dose: 0, 3000, 10000, 30000 PPM IN DIET FOR 80 WK (STUDY DURATION: 80 WK)): inactive; negative
carcinogen call (Species: MOUSE, Strain/Sex: SWISS/MALE, Route: ORAL, Dose: 0, 3000, 10000, 30000 PPM IN DIET FOR 80 WK (STUDY DURATION: 80 WK), Dose: 0, 3000, 10000, 30000 PPM IN DIET FOR 80 WK (STUDY DURATION: 80 WK)): inactive; negative
carcinogen call (Species: RAT, Strain/Sex: CPB-WK SPF/FEMALE, Route: ORAL, Dose: 0, 3000, 10000, 30000 PPM IN DIET FOR 113 WK (STUDY DURATION: 113 WK), Dose: 0, 3000, 10000, 30000 PPM IN DIET FOR 113 WK (STUDY DURATION: 113 WK)): inactive; negative
carcinogen call (Species: RAT, Strain/Sex: CPB-WK SPF/MALE, Route: ORAL, Dose: 0, 3000, 10000, 30000 PPM IN DIET FOR 120 WK (STUDY DURATION: 120 WK), Dose: 0, 3000, 10000, 30000 PPM IN DIET FOR 120 WK (STUDY DURATION: 120 WK)): inactive; negative

CN1CCC[C@H]1c1cccnc1
carcinogen call (Species: RAT, Strain/Sex: F344/FEMALE, Route: INHALATION, Dose: 0, 500 UG/M3 20 HR/D 5 D/WK FOR 2 YR (STUDY DURATION: 2 YR)): inactive; negative

Cc1cc(Cl)ccc1OC(C)C(=O)O (stereo not drawn)
carcinogen call (Species: Mouse, Strain/Sex: B6C3F1/CrlBR/Female (50/Group), Route: Oral, Dose: 0, 25, 250 ppm of 92.7% mecoprop in diet for 18 mo, study duration 18 mo, Dose: 0, 25, 250 ppm of 92.7% mecoprop in diet for 18 mo, study duration 18 mo): inactive; negative
carcinogen call (Species: Mouse, Strain/Sex: B6C3F1/CrlBR/Male (50/Group), Route: Oral, Dose: 0, 25, 250 ppm of 92.7% mecoprop in diet for 18 mo, study duration 18 mo, Dose: 0, 25, 250 ppm of 92.7% mecoprop in diet for 18 mo, study duration 18 mo, Tumor Site: Type of Lesion: Lung: carcinoma): active; positive
carcinogen call (Species: Rat, Strain/Sex: Wistar/Female (65/Group), Route: Oral, Dose: 0, 20, 100, 400 ppm of 92.7% mecoprop in diet for 24 mo, study duration 24 mo, Dose: 0, 20, 100, 400 ppm of 92.7% mecoprop in diet for 24 mo, study duration 24 mo): inactive; negative
carcinogen call (Species: Rat, Strain/Sex: Wistar/Male (65/Group), Route: Oral, Dose: 0, 20, 100, 400 ppm of 92.7% mecoprop in diet for 24 mo, study duration 24 mo, Dose: 0, 20, 100, 400 ppm of 92.7% mecoprop in diet for 24 mo, study duration 24 mo): inactive; negative

O=C(O)COc1ccc(Cl)cc1Cl
carcinogen call (Species: MOUSE, Strain/Sex: B6C3F1/FEMALE, Route: ORAL, Dose: 0, 5, 150, 300 MG/KG BW DAILY FOR 2 YR (STUDY DURATION: 2 YR), Dose: 0, 5, 150, 300 MG/KG BW DAILY FOR 2 YR (STUDY DURATION: 2 YR)): inactive; negative
carcinogen call (Species: MOUSE, Strain/Sex: B6C3F1/MALE, Route: ORAL, Dose: 0, 5, 62.5, 125 MG/KG BW DAILY FOR 2 YR (STUDY DURATION: 2 YR), Dose: 0, 5, 62.5, 125 MG/KG BW DAILY FOR 2 YR (STUDY DURATION: 2 YR)): inactive; negative
carcinogen call (Species: RAT, Strain/Sex: F344/FEMALE, Route: ORAL, Dose: 0, 5, 75, 150 MG/KG BW DAILY FOR 2 YR (STUDY DURATION: 2 YR), Dose: 0, 5, 75, 150 MG/KG BW DAILY FOR 2 YR (STUDY DURATION: 2 YR)): inactive; negative
carcinogen call (Species: RAT, Strain/Sex: F344/MALE, Route: ORAL, Dose: 0, 5, 75, 150 MG/KG BW DAILY FOR 2 YR (STUDY DURATION: 2 YR), Dose: 0, 5, 75, 150 MG/KG BW DAILY FOR 2 YR (STUDY DURATION: 2 YR)): inactive; negative

[Be+2]
carcinogen call (Species: RAT, Strain/Sex: WISTAR/FEMALE, Route: INTRATRACHEAL, Dose: 50 UG THEN 25 UG AFTER 10 MO, Tumor Site: Type of Lesion: LUNG: ADENOMA, ADENOCARCINOMA, ALVEOLAR/BRONCHIOLAR TUMOR): active; positive

O=P([O-])([O-])[O-].O=P([O-])([O-])[O-].[Pb+2].[Pb+2].[Pb+2]
carcinogen call (Species: RAT, Strain/Sex: ALBINO, Route: SUBCUTANEOUS, Dose: 20 MG 1/WK FOR UP TO 16 MO (TOTAL DOSE 40-760 MG/RAT), Tumor Site: Type of Lesion: KIDNEY: ADENOMA, PAPILLOMA, CYSTADENOMA, CARCINOMA): active; positive
carcinogen call (Species: RAT, Strain/Sex: STRAIN-CB/MALE, Route: SUBCUTANEOUS/INTRAPERITONEAL, Dose: TOTAL DOSES 29, 145, 450 MG, Dose: TOTAL DOSES 29, 145, 450 MG, Tumor Site: Type of Lesion: KIDNEY: ADENOMA, ADENOCARCINOMA): active; positive

O=Nc1cc2c3ccccc3ccc2c2ccccc12
carcinogen call (Species: MOUSE, Strain/Sex: SWISS/FEMALE, Route: INTRAPERITONEAL, Dose: 0, 100 NMOL (TOTAL DOSE) 1/7, 2/7 AND 4/7 ADMINISTERED ON DAYS 1, 8 AND 15 OF LIFE RESPECTIVELY (STUDY DURATION: 32 WK), Tumor Site: Type of Lesion: LUNG: TUMOR): active; positive
carcinogen call (Species: MOUSE, Strain/Sex: SWISS/MALE, Route: INTRAPERITONEAL, Dose: 0, 100 NMOL (TOTAL DOSE) 1/7, 2/7 AND 4/7 ADMINISTERED ON DAYS 1, 8 AND 15 OF LIFE RESPECTIVELY (STUDY DURATION: 32 WK), Tumor Site: Type of Lesion: LUNG: TUMOR, LIVER: TUMOR): active; positive

CC(C)(C)c1cc(O)ccc1O
carcinogen call (Species: MOUSE, Strain/Sex: B6C3F1/FEMALE, Route: ORAL, Dose: 0, 1250, 2500, 5000 PPM IN DIET FOR 105 WK (STUDY DURATION: 105 WK), Dose: 0, 1250, 2500, 5000 PPM IN DIET FOR 105 WK (STUDY DURATION: 105 WK)): inactive; negative
carcinogen call (Species: MOUSE, Strain/Sex: B6C3F1/MALE, Route: ORAL, Dose: 0, 1250, 2500, 5000 PPM IN DIET FOR 104 WK (STUDY DURATION: 104 WK), Dose: 0, 1250, 2500, 5000 PPM IN DIET FOR 104 WK (STUDY DURATION: 104 WK)): inactive; negative
carcinogen call (Species: RAT, Strain/Sex: F344/FEMALE, Route: ORAL, Dose: 0, 1250, 2500, 5000 PPM IN DIET FOR 129 WK ADMINISTERED TO RATS ALSO EXPOSED IN UTERO THROUGH MOTHERS THAT RECEIVED THE, Dose: 0, 1250, 2500, 5000 PPM IN DIET FOR 129 WK ADMINISTERED TO RATS ALSO EXPOSED IN UTERO THROUGH MOTHERS THAT RECEIVED THE): inactive; negative
carcinogen call (Species: RAT, Strain/Sex: F344/FEMALE, Route: ORAL, Dose: 0, 5000 PPM IN DIET FOR 128 WK, CONTROL AND DOSED GROUPS FED AD LIBITUM (STUDY DURATION: 128 WK)): inactive; negative
carcinogen call (Species: RAT, Strain/Sex: F344/FEMALE, Route: ORAL, Dose: 0, 5000 PPM IN DIET FOR 128 WK, CONTROL GROUP WAS WEIGHT-MATCHED TO DOSED GROUP (STUDY DURATION: 128 WK)): inactive; negative
carcinogen call (Species: RAT, Strain/Sex: F344/FEMALE, Route: ORAL, Dose: 0, 5000 PPM IN DIET FOR 130 WK, CONTROL GROUP DIET RESTRICTED TO LIMIT WEIGHTS TO 85% OF AD LIBITUM-FED GROUPS (STUDY DU): inactive; negative
carcinogen call (Species: RAT, Strain/Sex: F344/MALE, Route: ORAL, Dose: 0, 1250, 2500, 5000 PPM IN DIET FOR 123 WK ADMINISTERED TO RATS ALSO EXPOSED IN UTERO THROUGH MOTHERS THAT RECEIVED THE, Dose: 0, 1250, 2500, 5000 PPM IN DIET FOR 123 WK ADMINISTERED TO RATS ALSO EXPOSED IN UTERO THROUGH MOTHERS THAT RECEIVED THE): inactive; negative
carcinogen call (Species: RAT, Strain/Sex: F344/MALE, Route: ORAL, Dose: 0, 5000 PPM IN DIET FOR 102 WK, CONTROL AND DOSED GROUPS FED AD LIBITUM (STUDY DURATION; 122 WK), Dose: 0, 5000 PPM IN DIET FOR 102 WK, CONTROL AND DOSED GROUPS FED AD LIBITUM (STUDY DURATION; 122 WK)): inactive; negative
carcinogen call (Species: RAT, Strain/Sex: F344/MALE, Route: ORAL, Dose: 0, 5000 PPM IN DIET FOR 122 WK, CONTROL GROUP WAS WEIGHT-MATCHED TO DOSED GROUP (STUDY DURATION: 122 WK)): inactive; negative
carcinogen call (Species: RAT, Strain/Sex: F344/MALE, Route: ORAL, Dose: 0, 5000 PPM IN DIET FOR 130 WK, CONTROL GROUP DIET RESTRICTED TO LIMIT WEIGHTS TO 85% OF AD LIBITUM-FED GROUPS (STUDY DU): inactive; negative
